Data reported in US9353089B2, “Compositions and methods for the treatment of malaria” (Saint Louis University, priority 2013, dated 2016).
Like-named read-outs stand apart in the source and are kept apart here.

System: Plasmodium falciparum 3D7 (CQ-sensitive)
Experiment: In vitro antimalarial assay (malaria SYBR Green I-based fluorescence, MSF), 3D7
Type: cell-based
Description: Stock solutions of each test drug were prepared in DMSO at a concentration of 20 mM. The drug solutions were serially diluted with culture medium and distributed to asynchronous parasite cultures on 96-well plates in quadruplicate in a total volume of 100 μL to achieve 0.5% parasitemia with a 2% hematocrit in a total volume of 100 pt. […] After incubation, 100 μL of lysis buffer with 0.2 μL/mL SYBR Green I was added to each well.
Antimalarial potency of compounds was determined by this technique for both Plasmodium falciparum 3D7 (CQ-sensitive) and Dd2 (multi-drug resistant) strains.

[1] = 3D7, Table 13, read-out: 3D7 IC50
[2] = 3D7, Table 11, read-out: Pf 3D7 IC50

| Compound | IC50 [1] | further results |
| --- | --- | --- |
| COc1ccc(C2(C3CC3)NC(=N)N(C3CCOCC3)C2=O)cc1-c1cccnc1 (stereo not drawn) [Example 490, 5-cyclopropyl-2-imino-5-(4-methoxy-3-(pyridin-3-yl)phenyl)-3-(tetrahydro-2H-pyran-4-yl)imidazolidin-4-one] | 0.515 µM |  |
| N=C1NC(c2cccc(O)c2)(C2CC2)C(=O)N1C1CCCCC1 (stereo not drawn) [Example 549, 3-cyclohexyl-5-cyclopropyl-5-(3-hydroxyphenyl)-2-iminoimidazolidin-4-one] | 1.33 µM |  |
| COc1ccc(C2(c3ccc(OC)cc3)NC(=N)N(Cc3ccc(C)cc3)C2=O)cc1 [Example 231, 2-imino-5,5-bis(4-methoxyphenyl)-3-[(4-methylphenyl)-methyl]imidazolidin-4-one] | 0.795 µM |  |
| COc1cccc(C2(C3CC3)NC(=N)N(C3CCOCC3)C2=O)c1 (stereo not drawn) [Example 499, 5-cyclopropyl-2-imino-5-(3-methoxyphenyl)-3-(tetrahydro-2H-pyran-4-yl)imidazolidin-4-one] | 1.39 µM |  |
| C#Cc1cccc(-c2cccc(C3(C4CC4)NC(=N)N(C4CCOCC4)C3=O)c2)c1 (stereo not drawn) [Example 497, 5-cyclopropyl-5-(3′-ethynyl-[1,1′-biphenyl]-3-yl)-2-imino-3-(tetrahydro-2H-pyran-4-yl)imidazolidin-4-one] | 1.15 µM |  |
| CC(C)COc1cccc(C2(c3cccc(-c4cccnc4)c3)NC(=N)N(C3CCOCC3)C2=O)c1 (stereo not drawn) [Example 404, 2-imino-5-(3-isobutoxyphenyl)-5-(3-(pyridin-3-yl)phenyl)-3-(tetrahydro-2H-pyran-4-yl)imidazolidin-4-one] |  | inhibition of growth at 1 µM (3D7, 72 h, read-out: 3D7 % inh @ 1 μM): 7% |
| N=C1NC(c2ccccc2O)(C2CC2)C(=O)N1C1CCCCC1 (stereo not drawn) [Example 573, 3-cyclohexyl-5-cyclopropyl-5-(2-hydroxyphenyl)-2-iminoimidazolidin-4-one] | > 20 µM |  |
| COc1ccc(C2(c3ccc(OC)cc3)NC(=N)N(Cc3ccc(Cl)cc3)C2=O)cc1 [Example 232, 3-[(4-chlorophenyl)-methyl]-2-imino-5,5-bis(4-methoxyphenyl)-imidazolidin-4-one] | 1.27 µM |  |
| N=C1NC(c2ccc(Cl)cc2)(C2CC2)C(=O)N1C1CCCCC1 (stereo not drawn) [Example 577, 5-(4-chlorophenyl)-3-cyclohexyl-5-cyclopropyl-2-iminoimidazolidin-4-one] | 1.67 µM |  |
| CC(C)COc1ccc(C2(c3cccc(-c4cccnc4)c3)NC(=N)N(C3CCOCC3)C2=O)cc1 (stereo not drawn) [Example 412, 2-imino-5-(4-isobutoxyphenyl)-5-(3-(pyridin-3-yl)phenyl)-3-(tetrahydro-2H-pyran-4-yl)imidazolidin-4-one] | 4.21 µM |  |
| N=C1NC(c2ccc(Cl)cc2)(C2CCCCC2)C(=O)N1C1CCCCC1 (stereo not drawn) [Example 575, 5-(4-chlorophenyl)-3,5-dicyclohexyl-2-iminoimidazolidin-4-one] | 1.09 µM |  |
| COc1ccc(C2(c3ccc(OC)cc3)NC(=N)N(C3CCC(C)CC3)C2=O)cc1 (stereo not drawn) [Example 270, 2-imino-5,5-bis(4-methoxyphenyl)-3-(4-methylcyclohexyl)imidazolidin-4-one] | 0.724 µM |  |
| COc1ccc(C2(c3ccc(OC)cc3)NC(=N)N(Cc3cccc(C(F)(F)F)c3)C2=O)cc1 [Example 249, 2-imino-5,5-bis(4-methoxyphenyl)-3-{[3-(trifluoromethyl)-phenyl]methyl} imidazolidin-4-one] | 1.52 µM |  |
| COc1ccc(C2(c3ccc(OC)cc3)NC(=N)N(Cc3ccccc3Br)C2=O)cc1 [Example 307, 3-[(2-bromophenyl)-methyl]-2-imino-5,5-bis(4-methoxy-phenyl)imidazolidin-4-one] | 5.56 µM |  |
| N=C1NC(c2ccc(Cl)cc2)(C2CC2)C(=O)N1C1CCOCC1 (stereo not drawn) [Example 496, 5-(4-chlorophenyl)-5-cyclopropyl-2-imino-3-(tetrahydro-2H-pyran-4-yl)imidazolidin-4-one] | 0.35 µM |  |
| N=C1NC(c2ccc(O)cc2)(C2CC2)C(=O)N1C1CCCCC1 (stereo not drawn) [Example 551, 3-cyclohexyl-5-cyclopropyl-5-(4-hydroxyphenyl)-2-iminoimidazolidin-4-one] | 0.78 µM |  |
| COc1ccc(C2(C3CCCC3)NC(=N)N(C3CCCCC3)C2=O)cc1 (stereo not drawn) [Example 493, 3-cyclohexyl-5-cyclopentyl-2-imino-5-(4-methoxyphenyl)imidazolidin-4-one] | 0.64 µM |  |
| N=C1NC(c2cccc(-c3cccnc3)c2)(C2CC2)C(=O)N1C1CCCCC1 (stereo not drawn) [Example 512, 3-cyclohexyl-5-cyclopropyl-2-imino-5-(3-(pyridin-3-yl)phenyl)imidazolidin-4-one] |  | IC50 (3D7, read-out: 3D7 IC50 (μM), Table 13): 0.38 µM |
| N=C1NC(c2cccc(O)c2)(C2CC2)C(=O)N1C1CCOCC1 (stereo not drawn) [Example 519, 5-cyclopropyl-5-(3-hydroxyphenyl)-2-imino-3-(tetrahydro-2H-pyran-4-yl)imidazolidin-4-one] | 5.65 µM |  |
| N=C1NC(c2cccc(Cl)c2)(C2CC2)C(=O)N1C1CCOCC1 (stereo not drawn) [Example 495, 5-(3-chlorophenyl)-5-cyclopropyl-2-imino-3-(tetrahydro-2H-pyran-4-yl)imidazolidin-4-one] | 0.93 µM |  |
| COc1ccc(C2(c3ccc(OC)cc3)NC(=N)N(Cc3cccc(Cl)c3)C2=O)cc1 [Example 235, 3-[(3-chlorophenyl)-methyl]-2-imino-5,5-bis(4-methoxyphenyl)-imidazolidin-4-one] | 0.684 µM |  |
| N=C1NC(c2ccc(O)cc2)(c2ccc(O)cc2)C(=O)N1C1CCOCC1 [Example 550, 5,5-bis(4-hydroxyphenyl)-2-imino-3-(tetrahydro-2H-pyran-4-yl)imidazolidin-4-one] | 2.48 µM |  |
| COc1ccc(C2(c3ccc(OC)cc3)NC(=N)N(C3CCN(Cc4cc(Cl)ccc4O)CC3)C2=O)cc1 [Example 569, 3-(1-(5-chloro-2-hydroxybenzyl)piperidin-4-yl)-2-imino-5,5-bis(4-methoxyphenyl)-imidazolidin-4-one] | 0.45 µM |  |
| COc1ccc(C2(c3ccc(OC)cc3)NC(=N)N(Cc3ccccc3F)C2=O)cc1 [Example 306, 3-[(2-fluorophenyl)-methyl]-2-imino-5,5-bis(4-methoxyphenyl)-imidazolidin-4-one] | 5.23 µM |  |
| N=C1NC(c2ccc(F)c(F)c2)(C2CC2)C(=O)N1C1CCOCC1 (stereo not drawn) [Example 498, 5-cyclopropyl-5-(3,4-difluorophenyl)-2-imino-3-(tetrahydro-2H-pyran-4-yl)imidazolidin-4-one] | 1.29 µM |  |
| COc1ccc(C2(c3ccc(OC)cc3)NC(=N)N(Cc3ccccn3)C2=O)cc1 [Example 229, 2-imino-5,5-bis(4-methoxyphenyl)-3-(pyridin-2-ylmethyl)-imidazolidin-4-one] | 0.682 µM |  |

Second part, led by results:

| IC50 [1] | Compound | further results |
| --- | --- | --- |
| 1.11 µM | N#Cc1cccc(-c2cccc(C3(C4CCCCC4)NC(=N)N(C4CCOCC4)C3=O)c2)c1 (stereo not drawn) [Example 492, 3′-(4-cyclohexyl-2-imino-5-oxo-1-(tetrahydro-2H-pyran-4-yl)imidazolidin-4-yl)-[1,1′-biphenyl]-3-carbonitrile] |  |
| 1.46 µM | N#Cc1cccc(-c2cccc(C3(C4CC4)NC(=N)N(C4CCCCC4)C3=O)c2)c1 (stereo not drawn) [Example 486, 3′-(1-cyclohexyl-4-cyclopropyl-2-imino-5-oxoimidazolidin-4-yl)-[1,1′-biphenyl]-3-carbonitrile] |  |
| 0.81 µM | CC#Cc1cncc(-c2cccc(C3(C4CC4)NC(=N)N(C4CCCCC4)C3=O)c2)c1 (stereo not drawn) [Example 515, 3-cyclohexyl-5-cyclopropyl-2-imino-5-(3-(5-(prop-1-yn-1-yl)pyridin-3-yl)phenyl)imidazolidin-4-one] |  |
| 0.533 µM | Cc1cccc(C2(c3cccc(C)c3)NC(=N)N(C3CCCCC3)C2=O)c1 [Example 237, 3-cyclohexyl-2-imino-5,5-bis(3-methylphenyl)-imidazolidin-4-one] | IC50 [2]: 0.533 µM |
| 0.725 µM | N=C1NC(c2cccc(-c3cccnc3)c2)(c2cccc(-c3cccnc3)c2)C(=O)N1C1CCCCC1 [Example 269, 3-cyclohexyl-2-imino-5,5-bis[3-(pyridin-3-yl)phenyl]imidazolidin-4-one] | IC50 [2]: 0.725 µM |
| 1.99 µM | N#Cc1cccc(-c2cccc(C3(c4ccccc4)NC(=N)N(C4CCOCC4)C3=O)c2)c1 (stereo not drawn) [Example 413, 3′-(2-imino-5-oxo-4-phenyl-1-(tetrahydro-2H-pyran-4-yl)imidazolidin-4-yl)-[1,1′-biphenyl]-3-carbonitrile] |  |
| 1.06 µM | N=C1NC(c2cccc(Cl)c2)(c2cccc(Cl)c2)C(=O)N1C1CCCCC1 [Example 267, 5,5-bis(3-chlorophenyl)-3-cyclohexyl-2-iminoimidazolidin-4-one] | IC50 [2]: 1.06 µM |
| 2.87 µM | N=C1NC(c2cccc(Oc3ccccc3)c2)(C2CC2)C(=O)N1C1CCCCC1 (stereo not drawn) [Example 570, 3-cyclohexyl-5-cyclopropyl-2-imino-5-(3-phenoxyphenyl)imidazolidin-4-one] |  |
| > 5 µM | CC(C)COc1cccc(C2(c3cccc(OCC(C)C)c3)NC(=N)N(C3CCOCC3)C2=O)c1 [Example 389, 2-imino-5,5-bis[3-(2-methylpropoxy)phenyl]-3-(oxan-4-yl)imidazolidin-4-one] |  |
| 0.85 µM | N=C1NC(c2ccc(O)cc2)(c2ccc(O)cc2)C(=O)N1C1CCCCC1 [Example 547, 3-cyclohexyl-5,5-bis(4-hydroxyphenyl)-2-iminoimidazolidin-4-one] |  |
| 0.97 µM | N=C1NC(c2cccc(-c3cncc(Cl)c3)c2)(C2CC2)C(=O)N1C1CCCCC1 (stereo not drawn) [Example 514, 5-(3-(5-chloropyridin-3-yl)phenyl)-3-cyclohexyl-5-cyclopropyl-2-iminoimidazolidin-4-one] |  |
| 0.318 µM | COc1cccc(C2(c3cccc(-c4ccncc4)c3)NC(=N)N(C3CCCCC3)C2=O)c1 (stereo not drawn) [Example 225, 3-cyclohexyl-2-imino-5-(3-methoxy-phenyl)-5-[3-(pyridin-4-yl)phenyl]imidazolidin-4-one] | IC50 [2]: 0.318 µM |
